Read-outs that look alike come from different tables or passages of the source.
Key:
Cell viability, MTT = assay type: cell-based; details: African green monkey, Vero cells
Method: Cell viability was measured by the MTT [3-(4,5-dimethylthiazol-2-yl)-2,5-diphenyl tetrazolium bromide] (Sigma–Aldrich) method. Vero cells were seeded in a 96-well plate at a density of 5 × 10^3 cells per well and incubated overnight at 37 °C in a humidified 5% CO2 incubator. A drug-containing medium at concentrations ranging from 200 to 0.005 µM was added to the cell culture. After 72 h at 37 °C, the media was removed and a solution containing MTT at the final concentration of 1 mg/mL was added to each well and incubated for 30 min at 37 °C in a humidified 5% CO2 incubator, after which media was replaced with 100 μL of DMSO to solubilize the formazan crystals. Absorbance was measured by the optical density (OD) of each well at 490 nm, using a spectrophotometer. Cell viability was calculated according to the equation (T/C) × 100%, where T and C represent the mean optical density of the treated group and vehicle control group, respectively. […] 8 [95].

ZIKV NS5 RdRp = ZIKV NS5 RdRp (Zika virus, UniProt Q32ZE1); test: ZIKV NS5-RdRp activity assays (endpoint and concentration-response); assay type: biochemical; details: for inhibition at 20 µM: endpoint assay at 20 µM, read-out: inhibitory activity against ZIKV RdRp
Method: Nine prioritized hits were submitted to endpoint assay at 20 µM to verify their inhibitory activity against ZIKV RdRp. […] Pedalitin and quercetin were the only ones with activity greater than 80%, with inhibitory activity of 97% and 99%, respectively, and consequently were selected for the concentration-response assays.
We then investigated ZIKV RdRp activity in the presence of pedalitin and quercetin.
ZIKV NS5-RdRp activity assays were performed as described by Fernandes and coworkers. The endpoint assays were performed at 20 μM, and the compounds that inhibited more than 80% of activity in this assay were submitted to a concentration-response test. The concentration-responses assays were performed as described in [94]. In all cases, the percentage inhibition values were calculated based on a control reaction, containing only DMSO in the same concentrations used for the tested compounds. The results were analyzed and plotted using the GraphPad Prism v. 8.0 program.

ZIKV^BR = test: Antiviral assay, Vero cells infected with ZIKV^BR, foci by immunofluorescence; assay type: cell-based, Zika virus; details: for SI (selectivity index): SI = CC50/EC50, Vero cells; for EC50: Zika virus, read-out: EC50 ZIKV
Method: The anti-ZIKV activities of the pedalitin and quercetin were further investigated through the employment of Vero cells infected with ZIKV wild type (ZIKV^BR) (Figure 6). […] Vero cells were infected with ZIKV^BR and simultaneously treated with pedalitin or quercetin at concentrations ranging from 200 µM to 0.005 µM for 72 h when viral replication rates were assessed (Figure 6). Cell viability analysis was performed in parallel (Figure 6).
Vero cells were seeded at density of 5 × 10^3 cells per well into 96-well plates 24 h prior to the infection. ZIKV-WT^BR at a multiplicity of infection (MOI) of 0.1 and compound at concentrations ranging from 200 to 0.005 µM were simultaneously added to cells. 72 h post-infection (h.p.i.), cells were fixed with paraformaldehyde 4%, washed with PBS and blocking buffer (BB) containing: 0.1% Triton X-100 (Vetec Labs, PR, BR), 0.2% bovine albumin (BSA) and PBS for 30 min. Then, cells were incubated with primary rabbit polyclonal anti-NS3 antibody diluted in BB for 1 h. Alexa Fluor 488 conjugated anti-rabbit IgG was used as secondary antibody (Abcam, Cambridge, UK). Images were analyzed by EVO cell imaging systems fluorescence microscopy (Thermo Fisher Scientific, OH, USA) and foci of infection were counted. The antiviral activity was calculated according to the equation (T/C) × 100%, where T and C represent the mean of the treated group and mean of the […], respectively. […] 8. The values of CC50 and EC50 were used to calculate the selectivity index (SI = CC50/EC50).

SARS-CoV-2 RdRp = test system: SARS-CoV-2 RdRp; parameters: method as in PMID 35732785; details: cited from earlier work
DENV-2 virus = test system: DENV-2 virus; parameters: method as in PMID 22201648; details: Vero cells, cited from earlier work
DENV RdRP = details: ref 31 (10), ref 21 (11), ref 30 (12); cited from earlier work
DENV1 RdRP = test system: DENV1 RdRP; parameters: method as in earlier work; details: ref 49 (13), ref 8 (14), ref 24 (15); cited from earlier work
DENV3 RdRP = test system: DENV3 RdRP; parameters: method as in earlier work; details: ref 49 (13), ref 8 (14), ref 24 (15); cited from earlier work
DENV4 RdRP = test system: DENV4 RdRP; parameters: method as in earlier work; details: ref 49 (13), ref 8 (14), ref 24 (15); cited from earlier work
DENV2 RdRP = test system: DENV2 RdRP; parameters: method as in earlier work; details: ref 49 (13), ref 8 (14), ref 24 (15); cited from earlier work
ZIKV RdRp [1] = test system: ZIKV RdRp; parameters: method as in PMID 31310806; details: cited from earlier work
[2] = test system: Japanese encephalitis virus (JEV); details: cited from earlier work
ZIKV = test system: ZIKV; parameters: method as in PMID 30392049; details: Vero cells; cited from earlier work
DENV-2 = test system: DENV-2; parameters: method as in PMID 34126315, PMID 24965553; details: read-out: DENV2 EC50; cited from earlier work
ZIKV RdRp [3] = test system: ZIKV RdRp; parameters: method as in PMID 28098253; details: cited from earlier work

Sequence of ZIKV NS5 RdRp (Q32ZE1 2822-3419): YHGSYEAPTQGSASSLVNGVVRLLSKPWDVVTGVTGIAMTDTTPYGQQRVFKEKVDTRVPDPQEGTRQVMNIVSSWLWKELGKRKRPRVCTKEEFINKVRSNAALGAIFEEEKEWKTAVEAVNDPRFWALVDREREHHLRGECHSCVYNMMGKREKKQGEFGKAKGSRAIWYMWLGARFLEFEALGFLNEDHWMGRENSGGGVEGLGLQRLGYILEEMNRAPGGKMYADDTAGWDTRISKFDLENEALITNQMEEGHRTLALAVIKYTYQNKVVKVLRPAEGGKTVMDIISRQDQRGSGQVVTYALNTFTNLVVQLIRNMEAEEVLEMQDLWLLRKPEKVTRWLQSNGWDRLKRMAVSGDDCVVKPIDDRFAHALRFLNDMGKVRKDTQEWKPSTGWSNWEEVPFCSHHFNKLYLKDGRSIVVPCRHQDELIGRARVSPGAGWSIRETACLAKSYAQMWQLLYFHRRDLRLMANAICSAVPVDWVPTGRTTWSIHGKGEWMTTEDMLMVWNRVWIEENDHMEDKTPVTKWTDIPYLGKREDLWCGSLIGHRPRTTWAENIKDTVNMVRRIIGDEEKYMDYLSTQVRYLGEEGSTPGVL

## COc1cc2oc(-c3ccc(O)c(O)c3)cc(=O)c2c(O)c1O [Compound 8, Pedalitin]
Cell viability, MTT
  CC50 at 72 h: 83.7 µM
ZIKV NS5 RdRp
  IC50: 4100 ± 300 nM
  inhibition at 20 µM: 97%
ZIKV^BR
  SI (selectivity index): 4.34
ZIKV^BR; Vero, 72 h
  EC50: 19.3 µM

## O=c1c(O)c(-c2ccc(O)c(O)c2)oc2cc(O)cc(O)c12 [Compound 9, Quercetin]
Cell viability, MTT
  CC50 at 72 h: 36 µM
SARS-CoV-2 RdRp
  IC50: 6.9 µM
DENV-2 virus; administration after viral adsorption
  EC50: 95.6 µM
DENV-2 virus; concentration of 165.4 µM
  reduction of DENV-2 replication: 67%
ZIKV NS5 RdRp; concentration-response, 80 µM to 0.156 µM, read-out: IC50 ZIKV RdRp
  IC50: 500 ± 100 nM
ZIKV NS5 RdRp
  inhibition at 20 µM: 99%
ZIKV^BR
  SI (selectivity index): 2.03
ZIKV^BR; Vero cells, ZIKV^BR MOI 0.1, 72 h, 200 to 0.005 µM
  EC50: 17.7 µM

## O=C(O)CCCC(/C=C/c1ccccc1)c1c(O)c(C(CCCC(=O)O)CCc2ccccc2)c(O)c2c(=O)cc(-c3ccccc3)oc12 (stereo not drawn) [Compound 11, chartaceone D]
DENV RdRP
  IC50: 1800 ± 1200 nM

## COc1cc(O)c2c(=O)c(O)c(-c3ccc(O)c(O)c3)oc2c1 [Compound 12, rhamnetin]
DENV RdRP
  IC50: 2200 ± 200 nM

## O=C(Cc1ccccc1Nc1c(Cl)cccc1Cl)NC1(C(=O)O)Cc2ccccc2C1 [Compound 13, bis-chloro-diphenylamine, 2-aminoindan-2-carboxyl derivative]
DENV1 RdRP
  IC50: 6600 ± 1300 nM
DENV3 RdRP
  IC50: 12800 ± 1300 nM
DENV4 RdRP
  IC50: 6100 ± 1000 nM
DENV2 RdRP
  IC50: 16500 ± 1800 nM

## COc1cccc(S(=O)(=O)NC(=O)c2cc(-c3ccc(C#CCO)s3)c(OC)cc2OC)c1 [Compound 14, 5-(5-(3-Hydroxyprop-1-yn-1-yl)thiophen-2-yl)-2,4-dimethoxy-N-((3-methoxyphenyl)sulfonyl)benzamide]
DENV1 RdRP
  IC50: 68 nM
DENV3 RdRP
  IC50: 48 nM
DENV4 RdRP
  IC50: 172 ± 97 nM
DENV2 RdRP
  IC50: 106 nM

## COc1cc(C)c(C(=O)NS(=O)(=O)c2cccc3cccnc23)cc1-c1ccc(C#CCO)s1 [Compound 15, 5-(5-(3-Hydroxyprop-1-yn-1-yl)thiophen-2-yl)-4-methoxy-2-methyl-N-(quinolin-8-ylsulfonyl)benzamide]
DENV1 RdRP
  IC50: 13 nM
DENV3 RdRP
  IC50: 16 nM
DENV4 RdRP
  IC50: 23 ± 10 nM
DENV2 RdRP
  IC50: 38 nM

## C=CCCCCCCCCC(=O)O [Compound 17, undecylenic acid]
ZIKV RdRp [1]
  EC50: 7.43 µM

## O=c1cc(-c2ccccc2)oc2cc(O)c(O)c(O)c12 [Compound 18, baicalein]
[2]; Figure 4
  JEV ED50: 27 µM
[2]
  EC50: 27 ± 4 µM
ZIKV
  EC50: 0.004 µM
DENV-2
  EC50: 55.1 µM

## O=C(O)[C@H]1O[C@@H](Oc2cc3oc(-c4ccccc4)cc(=O)c3c(O)c2O)[C@H](O)[C@@H](O)[C@@H]1O [Compound 19, baicalin]
ZIKV
  EC50: 14 µM

## CC(C)OC(=O)[C@H](C)N[P@](=O)(OC[C@H]1O[C@@H](n2ccc(=O)[nH]c2=O)[C@](C)(F)[C@@H]1O)Oc1ccccc1 [Sofosbuvir, sofosbuvir]
ZIKV RdRp [3]
  IC50: 380 ± 30 nM

## O=c1cc(-c2ccc(O)c(O)c2)oc2cc(O)cc(O)c12 [luteolin]
SARS-CoV-2 RdRp
  IC50: 4.6 µM

## podocarpusflavone A [Compound 10]
DENV RdRP
  IC50: 160 ± 20 nM

Source: PMC9788182, “Natural Compounds as Non-Nucleoside Inhibitors of Zika Virus Polymerase through Integration of In Silico and In Vitro Approaches” (Pharmaceuticals, 2022)
